This note sets out measurements from patent US20230295087A1, “AGONISTS OF ROR GAMMAt” (BRISTOL-MYERS SQUIBB COMPANY, priority 2019, published 2023).

This assay has as its target T1, human RORgT (Homo sapiens, UniProt P51449).
T1 construct: expressed in transfected cells
T1 sequence (P51449 267-516): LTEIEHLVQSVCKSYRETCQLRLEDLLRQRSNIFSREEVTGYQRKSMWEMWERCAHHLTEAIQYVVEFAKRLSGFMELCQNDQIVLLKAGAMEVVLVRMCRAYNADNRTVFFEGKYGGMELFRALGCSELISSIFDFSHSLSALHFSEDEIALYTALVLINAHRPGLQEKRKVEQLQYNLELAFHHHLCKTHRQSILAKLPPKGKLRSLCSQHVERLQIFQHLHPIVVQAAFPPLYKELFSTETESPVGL
Description: RORgT Gal4 Luciferase Reporter Gene Assay. In kind it is cell-based. To be noted: engineered Jurkat cells overexpressing RORgT (LBD or full length) fused with Gal4 Luc reporter; 18 hours at 37° C.; luminescence. An outline of the steps: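 Jurkat cells expressing Gal4 Luc with either RORgT LBD (aa267-516) or full-length human RORgT, 10,000 cells/well, treated with compound (40 µM to 0.67 nM final, 3-fold dilutions) for 18 h at 37° C. Steady-Glo luminescence read; inhibition of constitutive activity as % signal-window reduction relative to a control compound.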
Background: Reporter assays use an easily measured gene product as a stand-in for the process of interest.

On to `NS(=O)(=O)CC(=O)N1CC[C@@]2(S(=O)(=O)c3ccc(F)cc3)c3ccc(OCc4c(F)cccc4C(F)(F)F)cc3CC[C@@H]12` [Example 185, 2-[(3aR,9bR)-7-{[2-fluoro-6-(trifluoromethyl)phenyl]methoxy}-9b-(4-fluorobenzenesulfonyl)-1H,2H,3H,3aH,4H,5H,9bH-benzo[e]indol-3-yl]-2-oxoethane-1-sulfonamide], for which the EC50 worked out at 90 nM.
Molecule `O=C(C1CCS(=O)(=O)C1)N1CC[C@@]2(S(=O)(=O)c3ccc(F)cc3)c3ccc(OCc4c(F)cccc4C(F)(F)F)cc3CC[C@@H]12` (stereo partly drawn) [Example 187, 3-[(3aR,9bR)-7-{[2-fluoro-6-(trifluoromethyl)phenyl]methoxy}-9b-(4-fluorobenzenesulfonyl)-1H,2H,3H,3aH,4H,5H,9bH-benzo[e]indole-3-carbonyl]-1λ^6-thiolane-1,1-dione] yielded an EC50 of 10 nM.
The figure for `CS(=O)(=O)CC(=O)N1CC[C@@]2(S(=O)(=O)c3ccc(F)cc3)c3ccc(OCc4c(F)cccc4C(F)(F)F)cc3CC[C@@H]12` [Example 188, 1-[(3aR,9bR)-7-{[2-fluoro-6-(trifluoromethyl)phenyl]methoxy}-9b-(4-fluorobenzenesulfonyl)-1H,2H,3H,3aH,4H,5H,9bH-benzo[e]indol-3-yl]-2-methanesulfonylethan-1-one] is 75 nM; for `CC(=O)N1CCC(C(=O)N2CC[C@@]3(S(=O)(=O)c4ccc(F)cc4)c4ccc(OCc5c(Cl)cccc5Cl)cc4CC[C@@H]23)CC1` [Example 189, 1-{4-[(3aR,9bR)-7-[(2,6-dichlorophenyl)methoxy] -9b-(4-fluorobenzenesulfonyl)-1H,2H,3H,3aH,4H,5H,9bH-benzo[e]indole-3-carbonyl]piperidin-1-yl}ethan-1-one] it is 41 nM; for `CS(=O)(=O)N1CCC(C(=O)N2CC[C@@]3(S(=O)(=O)c4ccc(F)cc4)c4ccc(OCc5c(Cl)cccc5Cl)cc4CC[C@@H]23)CC1` [Example 190, 4-[(3aR,9bR)-7-[(2,6-dichlorophenyl)methoxy]-9b-(4-fluorobenzenesulfonyl)-1H,2H,3H,3aH,4H,5H,9bH-benzo[e]indole-3-carbonyl]-1-methanesulfonylpiperidine] it is 8.7 nM.
`CS(=O)(=O)CC(=O)N1CC[C@@]2(S(=O)(=O)c3ccc(F)cc3)c3ccc(OCc4c(Cl)cccc4Cl)cc3CC[C@@H]12` [Example 191, 1-[(3 aR,9bR)-7-[(2,6-dichlorophenyl)methoxy] -9b-(4-fluorobenzenesulfonyl)-1H,2H,3H,3aH,4H,5H,9bH-benzo[e]indol-3-yl]-2-methanesulfonylethan-1-one] showed an EC50 of 134 nM.
For `O=C(O)[C@H]1CC[C@H](C(=O)N2CC[C@@]3(S(=O)(=O)c4ccc(F)cc4)c4ccc(OCc5ccc(F)cc5Cl)cc4CC[C@@H]23)CC1` [Example 193, (1r,4r)-4-[(3aR,9bR)-7-[(2-chloro-4-fluorophenyl)methoxy]-9b-(4-fluorobenzenesulfonyl)-1H,2H,3H,3aH,4H,5H,9bH-benzo[e]indole-3-carbonyl]cyclohexane-1-carboxylic acid], the EC50 is 46 nM.
The result for `NS(=O)(=O)CC(=O)N1CC[C@@]2(S(=O)(=O)c3ccc(F)cc3)c3ccc(OCc4cc(F)ccc4Cl)cc3CC[C@@H]12` [Example 194, 2-[(3aR,9bR)-7-[(2-chloro-5-fluorophenyl)methoxy]-9b-(4-fluorobenzenesulfonyl)-1H,2H,3H,3aH,4H,5H,9bH-benzo[e]indol-3-yl]-2-oxoethane-1-sulfonamide] reads 189 nM; that for `CS(=O)(=O)CC(=O)N1CC[C@@]2(S(=O)(=O)c3ccc(F)cc3)c3ccc(OCc4cc(F)ccc4Cl)cc3CC[C@@H]12` [Example 195, 1-[(3 aR,9bR)-7-[(2-chloro-5-fluorophenyl)methoxy]-9b-(4-fluorobenzenesulfonyl)-1H,2H,3H,3aH,4H,5H,9bH-benzo[e]indol-3-yl]-2-methanesulfonylethan-1-one], 158 nM; that for `CC(=O)N1CCC(C(=O)N2CC[C@@]3(S(=O)(=O)c4ccc(F)cc4)c4ccc(OCc5cc(Cl)ccc5Cl)cc4CC[C@@H]23)CC1` [Example 196, 1-{4-[(3aR,9bR)-7-[(2,5-dichlorophenyl)methoxy] -9b-(4-fluorobenzenesulfonyl)-1H,2H,3H,3aH,4H,5H,9bH-benzo[e]indole-3-carbonyl]piperidin-1-yl}ethan-1-one], 37 nM.
Take `O=C(CN1CCS(=O)(=O)CC1)N1CC[C@@]2(S(=O)(=O)c3ccc(F)cc3)c3ccc(OCc4cc(Cl)ccc4Cl)cc3CC[C@@H]12` [Example 197, 4-{2-[(3aR,9bR)-7-[(2,5-dichlorophenyl)methoxy] -9b-(4-fluorobenzenesulfonyl)-1H,2H,3H,3aH,4H,5H,9bH-benzo[e]indol-3-yl]-2-oxoethyl}-1λ^6-thiomorpholine-1,1-dione]: a half-maximal effect (EC50) was put at 49 nM. The EC50 values of the last two molecules are within 1.5-fold of each other.
The figure for `NC(=O)N1CCC(C(=O)N2CC[C@@]3(S(=O)(=O)c4ccc(F)cc4)c4ccc(OCc5ccc(F)cc5Cl)cc4CC[C@@H]23)CC1` [Example 198, 4-[(3aR,9bR)-7-[(2-chloro-4-fluorophenyl)methoxy]-9b-(4-fluorobenzenesulfonyl)-1H,2H,3H,3aH,4H,5H,9bH-benzo[e]indole-3-carbonyl] piperidine-1-carboxamide] is 19 nM; for `O=C(C1CCS(=O)(=O)C1)N1CC[C@@]2(S(=O)(=O)c3ccc(F)cc3)c3ccc(OCc4cc(Cl)ccc4Cl)cc3CC[C@@H]12` (stereo partly drawn) [Example 199, 3-[(3aR,9bR)-7-[(2,5-dichlorophenyl)methoxy]-9b-(4-fluorobenzenesulfonyl)-1H,2H,3H,3aH,4H,5H,9bH-benzo[e]indole-3-carbonyl]-1λ^6-thiolane-1,1-dione] it is 8.7 nM.
The result for `O=C(C1CCS(=O)(=O)CC1)N1CC[C@@]2(S(=O)(=O)c3ccc(F)cc3)c3ccc(OCc4cc(Cl)ccc4Cl)cc3CC[C@@H]12` [Example 200, 4-[(3aR,9bR)-7-[(2,5-dichlorophenyl)methoxy]-9b-(4-fluorobenzenesulfonyl)-1H,2H,3H,3aH,4H,5H,9bH-benzo[e]indole-3-carbonyl]-1λ^6-thiane-1,1-dione] reads 7.5 nM; that for `O=C(C1CCS(=O)(=O)C1)N1CC[C@@]2(S(=O)(=O)c3ccc(F)cc3)c3ccc(OCc4ccc(F)cc4Cl)cc3CC[C@@H]12` (stereo partly drawn) [Example 201, 3-[(3aR,9bR)-7-[(2-chloro-4-fluorophenyl)methoxy]-9b-(4-fluorobenzenesulfonyl)-1H,2H,3H,3aH,4H,5H,9bH-benzo[e]indole-3-carbonyl]-1λ^6-thiolane-1,1-dione], 40 nM.
The figure for `NC(=O)N1CCC(C(=O)N2CC[C@@]3(S(=O)(=O)c4ccc(F)cc4)c4ccc(OCc5cc(Cl)ccc5Cl)cc4CC[C@@H]23)CC1` [Example 202, 4-[(3aR,9bR)-7-[(2,5-dichlorophenyl)methoxy]-9b-(4-fluorobenzenesulfonyl)-1H,2H,3H,3aH,4H,5H,9bH-benzo[e]indole-3-carbony1]piperidine-1-carboxamide] is 15 nM; for `COC(=O)[C@H]1CC[C@H](C(=O)N2CC[C@@]3(S(=O)(=O)c4ccc(F)cc4)c4ccc(OCc5cc(Cl)ccc5Cl)cc4CC[C@@H]23)CC1` [Example 203, methyl (1r,4r)-4-[(3aR,9bR)-7-[(2,5-dichlorophenyl)methoxy] -9b-(4-fluorobenzenesulfonyl)-1H,2H,3H,3aH,4H,5H,9bH-benzo[e]indole-3-carbonyl] cyclohexane-1-carboxylate] it is 111 nM.
Molecule `CN1CCC(C(=O)N2CC[C@@]3(S(=O)(=O)c4ccc(F)cc4)c4ccc(OCc5cc(Cl)ccc5Cl)cc4CC[C@@H]23)CC1` [Example 204, 4-[(3aR,9bR)-7-[(2,5-dichlorophenyl)methoxy]-9b-(4-fluorobenzenesulfonyl)-1H,2H,3H,3aH,4H,5H,9bH-benzo[e]indole-3-carbonyl]-1-methylpiperidine] came in with an EC50 of 76 nM.
In turn, `O=C(O)[C@H]1CC[C@H](C(=O)N2CC[C@@]3(S(=O)(=O)c4ccc(F)cc4)c4ccc(OCc5cc(Cl)ccc5Cl)cc4CC[C@@H]23)CC1` [Example 205, (1r,4r)-4-[(3aR,9bR)-7-[(2,5-dichlorophenyl)methoxy] -9b-(4-fluorobenzenesulfonyl)-1H,2H,3H,3aH,4H,5H,9bH-benzo[e]indole-3-carbonyl]cyclohexane-1-carboxylic acid] gave an EC50 of 9.5 nM. Against the preceding molecule, the EC50 is about 8-fold lower.
The figure for `CN1CCC(C(=O)N2CC[C@@]3(S(=O)(=O)c4ccc(F)cc4)c4ccc(OCc5ccc(F)cc5Cl)cc4CC[C@@H]23)CC1` [Example 206, 4-[(3aR,9bR)-7-[(2-chloro-4-fluorophenyl)methoxy]-9b-(4-fluorobenzenesulfonyl)-1H,2H,3H,3aH,4H,5H,9bH-benzo[e]indole-3-carbonyl]-1-methylpiperidine] is 216 nM; for `CC(=O)N1CCC(C(=O)N2CC[C@@]3(S(=O)(=O)c4ccc(F)cc4)c4ccc(OCc5ccc(F)cc5Cl)cc4CC[C@@H]23)CC1` [Example 207, 1-{4-[(3aR,9bR)-7-[(2-chloro-4-fluorophenyl)methoxy]-9b-(4-fluorobenzenesulfonyl)-1H,2H,3H,3aH,4H,5H,9bH-benzo[e]indole-3-carbonyl]piperidin-1-yl}ethan-1-one] it is 28 nM; for `CS(=O)(=O)CC(=O)N1CC[C@@]2(S(=O)(=O)c3ccc(F)cc3)c3ccc(OCc4cc(Cl)ccc4Cl)cc3CC[C@@H]12` [Example 208, 1-[(3 aR,9bR)-7-[(2,5-dichlorophenyl)methoxy] -9b-(4-fluorobenzenesulfonyl)-1H,2H,3H,3aH,4H,5H,9bH-benzo[e]indol-3-yl]-2-methanesulfonylethan-1-one] it is 162 nM.

By EC50 is commonly meant the concentration at which the effect is half-maximal. Read a high EC50 as a less potent agent.
